What all share (experiment): relative viability (nuclei count vs DMSO), 5 days (fraction); higher = more cells survive
Compound in the experiment “Shikonin + Luminespib”: CC(C)=CC[C@@H](O)C1=CC(=O)c2c(O)ccc(O)c2C1=O [Shikonin] + CCNC(=O)c1noc(-c2cc(C(C)C)c(O)cc2O)c1-c1ccc(CN2CCOCC2)cc1 [Luminespib] (partner 0.01 µM)
Summed up:
(§1)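 After 5 days of treatment, lung cancer cells in 1536-well plates were fixed and stained in a single step (final 0.05% Triton X-100, 1% formaldehyde, 1 ug/ml Hoechst) and their nuclei counted on 4× images. Treatment had been applied by pin tool the day after seeding as one drug alone or as a fixed anchor-drug dose with five library-drug doses (not always all listed) in √10 steps. Relative viability is the nuclei count of treated wells divided by that of vehicle wells, and values are medians of duplicate plates.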

Compound in the experiment “Shikonin + Pemetrexed”: CC(C)=CC[C@@H](O)C1=CC(=O)c2c(O)ccc(O)c2C1=O [Shikonin] + Nc1nc2[nH]cc(CCc3ccc(C(=O)N[C@@H](CCC(=O)O)C(=O)O)cc3)c2c(=O)[nH]1 [Pemetrexed] (partner 0.2 µM)
Summed up: as §1

Compound in experiment [1]: CC(C)N(CCCNC(=O)Nc1ccc(C(C)(C)C)cc1)C[C@H]1O[C@@H](n2ccc3c(N)ncnc32)[C@H](O)[C@@H]1O + COc1cccc2cc(-c3nc([C@H]4CC[C@H](C(=O)O)CC4)n4ncnc(N)c34)[nH]c12 [OSI-027] (partner 0.5 µM)
Summed up:
as §1

Compound in the experiment “Shikonin + Crizotinib”: CC(C)=CC[C@@H](O)C1=CC(=O)c2c(O)ccc(O)c2C1=O [Shikonin] + C[C@@H](Oc1cc(-c2cnn(C3CCNCC3)c2)cnc1N)c1c(Cl)ccc(F)c1Cl [Crizotinib] (partner 1 µM)
Summed up: as §1

On to RERF-LC-KJ, for which the relative viability with Shikonin + Luminespib (first compound 0.01 µM) was determined as 1.2; with Shikonin + Luminespib (first compound 0.1 µM), 1.29; with Shikonin + Luminespib (first compound 0.3162 µM) it was 1.2; in the experiment with Shikonin + Luminespib (first compound 1 µM) it was 1.11; with Shikonin + Pemetrexed (first compound 0.01 µM), 0.47; with Shikonin + Pemetrexed (first compound 0.1 µM), 0.512. Moreover, the relative viability with Shikonin + Pemetrexed (first compound 0.3162 µM) turned out to be 0.465; with Shikonin + Pemetrexed (first compound 1 µM), 0.549; in experiment [1] (first compound 0.08 µM) it was 0.551; in experiment [1] (first compound 0.253 µM), 0.624; in experiment [1] (first compound 0.8 µM) it was 0.679; in experiment [1] (first compound 2.53 µM), 0.529. The relative viability in experiment [1] (first compound 8 µM) was 0.453; in the experiment with Shikonin + Crizotinib (first compound 0.01 µM) it was 0.945; in the experiment with Shikonin + Crizotinib (first compound 0.1 µM), 0.91; with Shikonin + Crizotinib (first compound 0.3162 µM), 0.829; in the experiment with Shikonin + Crizotinib (first compound 1 µM), 0.899.
Take SK-LU-1: the relative viability was 0.212 with Shikonin + Luminespib (first compound 0.01 µM); 0.215 with Shikonin + Luminespib (first compound 0.1 µM); 0.198 with Shikonin + Luminespib (first compound 0.3162 µM); 0.187 with Shikonin + Luminespib (first compound 1 µM); 1.14 with Shikonin + Pemetrexed (first compound 0.01 µM); 1.17 with Shikonin + Pemetrexed (first compound 0.1 µM). The relative viability in the experiment with Shikonin + Pemetrexed (first compound 0.3162 µM) was 1.01; with Shikonin + Pemetrexed (first compound 1 µM) it was 0.994; in experiment [1] (first compound 0.08 µM), 0.372; in experiment [1] (first compound 0.253 µM) it was 0.424; in experiment [1] (first compound 0.8 µM), 0.352; in experiment [1] (first compound 2.53 µM), 0.405. For the same cell line, the relative viability in experiment [1] (first compound 8 µM) worked out at 0.338; with Shikonin + Crizotinib (first compound 0.01 µM), 1.11; with Shikonin + Crizotinib (first compound 0.1 µM) it was 0.937; in the experiment with Shikonin + Crizotinib (first compound 0.3162 µM) it was 0.928; with Shikonin + Crizotinib (first compound 1 µM), 0.877.
Take SK-MES-1: the relative viability was determined as 0.969 with Shikonin + Luminespib (first compound 0.01 µM); 0.677 with Shikonin + Luminespib (first compound 0.1 µM); 0.833 in the experiment with Shikonin + Luminespib (first compound 0.3162 µM); 0.698 with Shikonin + Luminespib (first compound 1 µM); 0.923 with Shikonin + Pemetrexed (first compound 0.01 µM); 1.17 with Shikonin + Pemetrexed (first compound 0.1 µM). Besides, the relative viability with Shikonin + Pemetrexed (first compound 0.3162 µM) worked out at 0.984; with Shikonin + Pemetrexed (first compound 1 µM), 1.01; in experiment [1] (first compound 0.08 µM), 0.615; in experiment [1] (first compound 0.253 µM), 0.685; in experiment [1] (first compound 0.8 µM), 0.586; in experiment [1] (first compound 2.53 µM), 0.619. For the same cell line, the relative viability in experiment [1] (first compound 8 µM) was 0.586; in the experiment with Shikonin + Crizotinib (first compound 0.01 µM), 1.11; in the experiment with Shikonin + Crizotinib (first compound 0.1 µM) it was 1.05; with Shikonin + Crizotinib (first compound 0.3162 µM) it was 1.08; with Shikonin + Crizotinib (first compound 1 µM), 1.11.
For SW 1573, the relative viability was determined as 0.494 with Shikonin + Luminespib (first compound 0.01 µM); 0.201 with Shikonin + Luminespib (first compound 0.1 µM); 0.232 with Shikonin + Luminespib (first compound 0.3162 µM); 0.0929 with Shikonin + Luminespib (first compound 1 µM); 0.946 in the experiment with Shikonin + Pemetrexed (first compound 0.01 µM); 0.947 in the experiment with Shikonin + Pemetrexed (first compound 0.1 µM). The relative viability in the experiment with Shikonin + Pemetrexed (first compound 0.3162 µM) came to 0.589; with Shikonin + Pemetrexed (first compound 1 µM), 0.143; in experiment [1] (first compound 0.08 µM) it was 0.501; in experiment [1] (first compound 0.253 µM), 0.679; in experiment [1] (first compound 0.8 µM), 0.635; in experiment [1] (first compound 2.53 µM), 0.683. Also, the relative viability worked out at 0.705 in experiment [1] (first compound 8 µM); 0.906 with Shikonin + Crizotinib (first compound 0.01 µM); 0.867 with Shikonin + Crizotinib (first compound 0.1 µM); 0.889 with Shikonin + Crizotinib (first compound 0.3162 µM); 0.741 with Shikonin + Crizotinib (first compound 1 µM).
As to UMC-11, the relative viability was 0.997 with Shikonin + Luminespib (first compound 0.01 µM); 1.05 with Shikonin + Luminespib (first compound 0.1 µM); 0.986 with Shikonin + Luminespib (first compound 0.3162 µM); 0.996 in the experiment with Shikonin + Luminespib (first compound 1 µM); 0.813 in the experiment with Shikonin + Pemetrexed (first compound 0.01 µM); 0.942 with Shikonin + Pemetrexed (first compound 0.1 µM). In addition, the relative viability with Shikonin + Pemetrexed (first compound 0.3162 µM) came to 0.836; with Shikonin + Pemetrexed (first compound 1 µM) it was 0.793; in experiment [1] (first compound 0.08 µM) it was 0.458; in experiment [1] (first compound 0.253 µM), 0.465; in experiment [1] (first compound 0.8 µM), 0.453; in experiment [1] (first compound 2.53 µM), 0.522. For the same cell line, the relative viability worked out at 0.532 in experiment [1] (first compound 8 µM); 0.745 with Shikonin + Crizotinib (first compound 0.01 µM); 0.559 with Shikonin + Crizotinib (first compound 0.1 µM); 0.658 in the experiment with Shikonin + Crizotinib (first compound 0.3162 µM); 0.633 with Shikonin + Crizotinib (first compound 1 µM).

The record behind these values is the supplement of paper PMC10307832.
